Data taken from patent US20060069132A1, “Azolecarboxamide herbicides” (priority 2004, published 2006).

Tests used:
[1] = system: rice; assay: Test B pre-/postemergence herbicide test; format: in vivo, Oryza sativa; conditions: preemergence
Summary of the method: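 Pre: seeds sown, then sprayed. Post: 1–4-leaf plants (2–18 cm) sprayed at the same time. Paddy: flooded, treated at 2-leaf stage. Formulation: non-phytotoxic solvent with surfactant. Greenhouse 13–15 days; visual 0–100 score relative to controls.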

[2] = system: eastern black nightshade; assay: Test C pre-/postemergence herbicide test; format: in vivo, Solanum ptycanthum
Summary of the method: (§1)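 Preemergence: seeds planted and treated with compound in non-phytotoxic solvent with surfactant; postemergence: plants at 2 to 18 cm (1- to 4-leaf stage) sprayed likewise. Kept in greenhouse 12 to 14 days, then visually rated against controls, 0 (no effect) to 100 (complete control).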

[3] = system: rice; assay: Test C flooded paddy test; format: in vivo, Oryza sativa; conditions: for Plant response rating, Rice: 500 g ai/ha, visual rating after 12 to 14 days
Summary of the method: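 Injury scored visually against controls on a 0 (no effect) to 100 (complete control) scale, 12 to 14 days after treatment in greenhouse. Flooded paddy plants treated at 2-leaf stage; postemergence plants at 1- to 4-leaf stage, 2 to 18 cm tall.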

[4] = system: barnyardgrass; assay: Test C flooded paddy test; format: in vivo, Echinochloa crus-galli; conditions: for Plant response rating, Barnyardgrass: 500 g ai/ha, visual rating after 12 to 14 days
Summary of the method: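 Postemergence sprays applied to plants 2 to 18 cm tall (1- to 4-leaf stage); paddy species grown to 2-leaf stage under flooding. After 12 to 14 days in greenhouse, visual rating versus untreated controls on 0–100 scale (0 no effect, 100 complete control).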

[5] = system: common ragweed; assay: Test C pre-/postemergence herbicide test; format: in vivo, Ambrosia elatior; set-up: key to Plant response rating, Ragweed: 0 = no effect, 100 = complete control
Summary of the method: as §1

[6] = system: common (oilseed) sunflower; assay: Test C pre-/postemergence herbicide test; format: in vivo, Helianthus annuus
Summary of the method: as §1

[7] = system: giant foxtail; assay: Test C pre-/postemergence herbicide test; format: in vivo, Setaria faberi
Summary of the method: as §1

[8] = system: velvetleaf; assay: Test A pre-/postemergence herbicide test; format: in vivo, Abutilon theophrasti
Summary of the method: (§2)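 Sandy loam soil given preemergence directed spray; plants at 2 to 10 cm, one- to two-leaf stage, sprayed to runoff postemergence, compounds in non-phytotoxic solvent with surfactant. Injury rated visually versus untreated controls after about ten greenhouse days, 0 (no effect) to 100 (complete control); dash means not tested.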

[9] = system: morningglory; assay: Test A pre-/postemergence herbicide test; format: in vivo, Ipomoea spp.
Summary of the method: as §2

[10] = 125 g ai/ha, scale 0 (no effect) to 100 (complete control), visual, 12 to 14 days, preemergence
[11] = Preemergence, 500 g ai/ha, scale 0 to 100, 0 no effect, 100 complete control
[12] = 62 g ai/ha, scale 0 to 100 (0 no effect, 100 complete control)
[13] = 125 g ai/ha, scale 0 to 100 (0 no effect, 100 complete control)
[14] = 250 g ai/ha, scale of 0 to 100, 0 is no effect, 100 is complete control
[15] = scale 0 to 100 (0 no effect, 100 complete control)
[16] = Postemergence, 500 g ai/ha, scale 0 to 100
[17] = Postemergence, 250 g ai/ha, scale 0 to 100, 0 no effect, 100 complete control
[18] = postemergence, 125 g ai/ha, scale 0 to 100
[19] = postemergence, 62 g ai/ha, scale 0 to 100
[20] = Postemergence, 500 g ai/ha, 0 to 100 scale, 0 no effect, 100 complete control
[21] = Postemergence, 2000 g ai/ha, 0 to 100 scale, 0 no effect, 100 complete control
[22] = Preemergence, 2000 g ai/ha, visual rating, 0 to 100 scale (0 no effect, 100 complete control)
[23] = preemergence, 500 g ai/ha, visual injury, 0 to 100 scale (0 no effect, 100 complete control)
[24] = 125 g ai/ha, 0 = no effect, 100 = complete control
[25] = 500 g ai/ha, visual rating, 0 = no effect, 100 = complete control
[26] = 62 g ai/ha, preemergence, scale 0 to 100
[27] = 250 g ai/ha, scale 0-100, preemergence
[28] = 500 g ai/ha, scale 0 to 100 (0 no effect, 100 complete control), visual, 12 to 14 days, preemergence

SMILES: CCn1nc(C(C)(C)C)cc1C(=O)Nc1cccc(C(=O)NC2CC2)n1 [Compound 146]
- Plant response rating, Rice ([1]; 500 g ai/ha, visual rating 0-100, 0 no effect, 100 complete control): 40
- Plant response rating, Rice ([1]; 125 g ai/ha, 0 to 100 scale, 0 is no effect, 100 is complete control): 10
- Plant response rating (0 = no effect, 100 = complete control), Nightshade ([2]; 62 g ai/ha, preemergence): 50
- Plant response rating, Nightshade [2, 10]: 60
- Nightshade plant response rating [2, 11]: 100
- Rice plant response rating [3, 12]: 0
- Rice plant response rating [3, 13]: 0
- Rice plant response rating [3, 14]: 0
- Plant response rating, Rice [3, 15]: 20
- Barnyardgrass plant response rating [4, 12]: 0
- Barnyardgrass plant response rating ([4]; 125 g ai/ha, scale of 0 to 100, 0 is no effect, 100 is complete control): 0
- Barnyardgrass plant response rating [4, 14]: 0
- Plant response rating, Barnyardgrass [4, 15]: 20
- Plant response rating (0 = no effect, 100 = complete control), Ragweed ([5]; 62 g ai/ha, preemergence): 0
- Plant response rating, Ragweed [5, 10]: 0
- Ragweed plant response rating [5, 16]: 0
- Plant response rating, Ragweed [5, 17]: 0
- Ragweed plant response rating [5, 11]: 70
- Plant response rating, Ragweed [5, 18]: 0
- Plant response rating, Ragweed [5, 19]: 0
- Plant response rating (0 = no effect, 100 = complete control), Sunflower ([6]; 62 g ai/ha, preemergence): 0
- Plant response rating, Sunflower [6, 10]: 0
- Sunflower plant response rating [6, 11]: 0
- Plant response rating (0 = no effect, 100 = complete control), Foxtail, Giant ([7]; 62 g ai/ha, preemergence): 0
- Plant response rating, Foxtail, Giant [7, 10]: 10
- Plant response rating, Foxtail, Giant ([7]; 250 g ai/ha, scale 0 to 100 (0 no effect, 100 complete control), visual, 12 to 14 days, preemergence): 60
- Foxtail, Giant plant response rating [7, 16]: 10
- Plant response rating, Foxtail, Giant [7, 17]: 0
- Foxtail, Giant plant response rating [7, 11]: 80
- Plant response rating, Foxtail, Giant [7, 18]: 0
- Plant response rating, Foxtail, Giant [7, 19]: 0
- Velvetleaf plant response rating [8, 20]: 20
- Plant response rating, Velvetleaf [8, 21]: 35
- Velvetleaf plant response rating [8, 22]: 25
- Velvetleaf plant response rating [8, 23]: 20
- Morningglory plant response rating [9, 20]: 5
- Plant response rating, Morningglory [9, 21]: 0
- Morningglory plant response rating ([9]; Preemergence, 500 g ai/ha, visual rating, 0 to 100 scale (0 no effect, 100 complete control)): 5
- Morningglory plant response rating [9, 22]: 50

SMILES: CCc1nc(C(C)(C)C)sc1C(=O)Nc1cccc(C(=O)NCC2CC2)n1 [Compound 215]
- Rice plant response rating (0 to 100 scale) [1, 24]: 0
- Plant response rating, Rice [1, 25]: 0
- Plant response rating, Nightshade [2, 26]: 100
- Plant response rating, Nightshade [2, 10]: 100
- Plant response rating, Nightshade [2, 27]: 100
- Plant response rating, Nightshade [2, 28]: 100
- Rice plant response rating [3, 12]: 0
- Rice plant response rating [3, 13]: 0
- Rice plant response rating [3, 14]: 0
- Plant response rating, Rice [3, 15]: 20
- Barnyardgrass plant response rating [4, 12]: 0
- Barnyardgrass plant response rating [4, 13]: 0
- Barnyardgrass plant response rating [4, 14]: 40
- Plant response rating, Barnyardgrass [4, 15]: 50
- Plant response rating, Ragweed [5, 26]: 0
- Plant response rating, Ragweed [5, 27]: 100
- Plant response rating, Ragweed [5, 28]: 100
- Plant response rating, Sunflower [6, 26]: 0
- Plant response rating, Sunflower [6, 27]: 0
- Plant response rating, Sunflower [6, 28]: 0
- Plant response rating, Foxtail, Giant [7, 26]: 0
- Plant response rating, Foxtail, Giant [7, 10]: 50
- Plant response rating, Foxtail, Giant [7, 27]: 70
- Plant response rating, Foxtail, Giant [7, 28]: 100
- Velvetleaf plant response rating [8, 20]: 30
- Plant response rating, Velvetleaf [8, 21]: 30
- Velvetleaf plant response rating [8, 22]: 30
- Velvetleaf plant response rating [8, 23]: 15
- Morningglory plant response rating [9, 20]: 25
- Plant response rating, Morningglory [9, 21]: 35
- Morningglory plant response rating [9, 22]: 55
- Morningglory plant response rating [9, 23]: 20

SMILES: CCn1nc(C(C)(C)C)cc1C(=O)Nc1cncc(C(=O)N(C)C)n1 [Compound 287]
- Rice plant response rating (0 to 100 scale) [1, 24]: 80
- Plant response rating, Rice [1, 25]: 90
- Plant response rating, Nightshade [2, 26]: 95
- Plant response rating, Nightshade [2, 10]: 100
- Plant response rating, Nightshade [2, 27]: 100
- Plant response rating, Nightshade [2, 28]: 100
- Rice plant response rating ([3]; 62 g ai/ha, scale 0 to 100): 0
- Rice plant response rating [3, 13]: 20
- Rice plant response rating [3, 14]: 25
- Plant response rating, Rice [3, 15]: 55
- Barnyardgrass plant response rating [4, 12]: 0
- Barnyardgrass plant response rating [4, 13]: 0
- Barnyardgrass plant response rating [4, 14]: 0
- Plant response rating, Barnyardgrass [4, 15]: 25
- Plant response rating, Ragweed [5, 26]: 100
- Plant response rating, Ragweed [5, 27]: 100
- Plant response rating, Ragweed [5, 28]: 100
- Plant response rating, Sunflower [6, 26]: 90
- Plant response rating, Sunflower [6, 27]: 100
- Plant response rating, Sunflower [6, 28]: 100
- Plant response rating, Foxtail, Giant [7, 26]: 0
- Plant response rating, Foxtail, Giant [7, 10]: 70
- Plant response rating, Foxtail, Giant [7, 27]: 85
- Plant response rating, Foxtail, Giant [7, 28]: 100
- Velvetleaf plant response rating [8, 20]: 55
- Plant response rating, Velvetleaf [8, 21]: 65
- Velvetleaf plant response rating [8, 22]: 100
- Velvetleaf plant response rating [8, 23]: 50
- Morningglory plant response rating [9, 20]: 20
- Plant response rating, Morningglory [9, 21]: 15
- Morningglory plant response rating [9, 22]: 50
- Morningglory plant response rating [9, 23]: 10
